Test results published in patent US11629341B2, “Method for producing selenoneine” (KIKKOMAN CORPORATION, priority 2015, dated 2023).

Legend:
[1] = system: E. coli; assay: main culture of transformed E. coli in TY medium containing selenocystine; assay type: cell-based; conditions: TY++ line: 0.1 mM selenocystine present during the initial stage of culture, 25° C.
Method: In a 19 ml test tube, each of the bacterial strains shown in Table 13 was inoculated into 2.5 ml of a TY medium. The inoculated medium was then seed-cultured at 37° C. for 16 hours while agitated at 180 rpm. In a 19 ml test tube, 20 μl of the seed culture was inoculated into 2.5 ml of a TY medium containing ampicillin and 0.5 mM IPTG. The inoculated medium was then main-cultured at 25° C. for 20.5 hours while agitated at 180 rpm. Three different lines of TY medium were prepared for the main culture: a TY medium containing 0.1 mM selenocystine (TY++), a TY medium containing 0.01 mM selenocystine (TY+), and a TY medium to which selenocystine was added to 0.01 mM six hours after the start of culture (TY+∘).
In addition, the amount of selenoneine produced by the (EcEgtA+EcEgtC) transformant was higher than that of the EcEgtA transformant and the difference between the two transformants was more significant in the culture supernatants.

[2] = compared with ergothioneine; cited from earlier work

## N[C@@H](C[Se][Se]C[C@H](N)C(=O)O)C(=O)O [selenocystine]
[1]
  growth inhibition: caused growth inhibition

## C[N+](C)(C)[C@@H](Cc1cnc([Se-])[nH]1)C(=O)O [selenoneine]
[2]
  antioxidant activity relative to ergothioneine: 1,000 times
